Results: patent US20090105293A1, “USE OF THIENOPYRIDONE DERIVATIVES AS AMPK ACTIVATORS AND PHARMACEUTICAL COMPOSITIONS CONTAINING THEM” (priority 2005, published 2009)

What was measured:
[1] = tested on: Human recombinant AMPK enzyme; assay: AMPK screening assay, AlphaScreen technology; assay type: biochemical; details: 25 mM Tris/HCl buffer pH 7.5, 100 μM ATP, AMARAA peptide substrate, 30 min room temperature, activator concentration not given
Procedure: (§1) Human recombinant AMPK enzyme was expressed in E. Coli and was reactivated in vitro by LKB1 prior to enzyme activity determination.
(§2) AMPK enzyme activities were assayed by using 2 fluorescent based technologies (AlphaScreen/Delfia) and were carried out in microtiter plates (containing 25 mM Tris/HCl buffer, pH 7.5 with 100 μM ATP/50 mM Hepes buffer, pH 7.4 with 125 μM ATP respectively) in the presence of a synthetic peptide substrate (AMARAASAAALARRR, the “AMARAA” peptide) and activators in serial dilutions. Reactions were initiated by the addition of AMPK (50-100 ng). Following mixing, the plates were incubated for 30 min at room temperature. Enzyme activity was assayed by using an anti-phosphoserine antibody to measure the quantity of phosphate incorporated into the AMARAA. Activity is expressed in % of control (basal activity): […]

[2] = tested on: Human recombinant AMPK enzyme; assay: AMPK screening assay, Delfia technology; assay type: biochemical; details: 50 mM Hepes buffer pH 7.4, 125 μM ATP, AMARAA peptide substrate, 30 min room temperature, activator concentration not given
Procedure: as §1, §2

[3] = tested on: ob/ob and db/db mice; details: 8 day administration; both ob/ob and db/db mice; cited from earlier work

SMILES | α-Screen: AMPK activity expressed in % of control (basal activity) [1] | Delfia: AMPK activity expressed in % of control (basal activity) [2] | reduction of blood glucose [3]
O=c1[nH]c2sc3c(c2c(O)c1-c1ccccc1)CCCC3 [Compound 210, 4-Hydroxy-3-phenyl-5,6,7,8-tetrahydro-1-benzothieno[2,3-b]pyridin-2(1H)-one] | 176 % of control | 286 % of control | 
CCC(C)c1c(Cl)sc2[nH]c(=O)c(-c3ccccc3)c(O)c12 (centres unmarked) [Compound 206] | 269 % of control | 164 % of control | 
O=c1[nH]c2sc(Cl)c(C3CC3)c2c(O)c1-c1cccc(Oc2ccccc2)c1 [Compound 205, 2-chloro-3-cyclopropyl-4-hydroxy-5-(3-phenoxy-phenyl)-7H-thieno[2,3-b]pyridine-6-one] | 166 % of control | 151 % of control | 
CC(C)c1csc2[nH]c(=O)c(-c3ccccc3)c(O)c12 [Compound 207, 4-Hydroxy-3-isopropyl-5-phenyl-7H-thieno[2,3-b]pyridin-6-one] | 131 % of control | 169 % of control | 
NC(=O)c1ncn([C@@H]2O[C@H](CO)[C@@H](O)[C@H]2O)c1N [AICAR] |  |  | 35%
CC(C)c1c(Cl)sc2[nH]c(=O)c(-c3ccccc3)c(O)c12 [Compound 204, 2-Chloro-4-hydroxy-3-isopropyl-5-phenyl-7H-thieno[2,3-b]pyridin-6-one] | 181 % of control | 233 % of control | 
CCc1cc2c(O)c(-c3ccccc3)c(=O)[nH]c2s1 [Compound 201, 2-Ethyl-4-hydroxy-5-phenyl-7H-thieno[2,3-b]pyridin-6-one] | 150 % of control | 219 % of control | 
Cc1sc2[nH]c(=O)c(-c3ccccc3)c(O)c2c1C [Compound 200, 4-Hydroxy-2,3-dimethyl-5-phenyl-7H-thieno[2,3-b]pyridin-6-one] | 154 % of control | 232 % of control | 
O=c1[nH]c2sc(Br)cc2c(O)c1-c1ccccc1 [Compound 203, 2-Bromo-4-hydroxy-5-phenyl-7H-thieno[2,3-b]pyridin-6-one] | 286 % of control | 271 % of control | 
O=c1[nH]c2scc(C3CC3)c2c(O)c1-c1ccccc1 [Compound 208, 3-Cyclopropyl-4-hydroxy-5-phenyl-7H-thieno[2,3-b]pyridin-6-one] | 154 % of control | 163 % of control | 
Cc1c(Br)sc2[nH]c(=O)c(-c3ccccc3)c(O)c12 [Compound 202, 2-Bromo-4-hydroxy-3-methyl-5-phenyl-7H-thieno[2,3-b]pyridin-6-one] | 322 % of control | 313 % of control | 
CCC(C)c1csc2[nH]c(=O)c(-c3ccccc3)c(O)c12 (centres unmarked) [Compound 209] | 156 % of control | 201 % of control | 
